# Results: US11498943B2, “Amyloid inhibitory peptides” (TECHNISCHE UNIVERSITÄT MÜNCHEN, priority 2018, dated 2022)
# Where a SMILES comes first, the peptide text is derived from it. [ ]: non-standard residue; d: D form. NMeI = CC[C@H](C)[C@H](NC)C(=O)O; Sar = CNCC(=O)O
# How the values were obtained:
# IAPP [1] = biological target: T1, IAPP (Homo sapiens, UniProt P10997); test: IAPP fibrillogenesis by ThT binding, confirmed by TEM, with cell damage by MTT reduction; format: biochemical; parameters: IAPP was synthesized by SPPS and the Fmoc-strategy on RINK resin, subjected to air oxidation and purified by RP-HPLC; made in house; host or cells: chemical synthesis (Fmoc SPPS on RINK resin, air oxidation); conditions: IAPP 6 μM, MTT in RIN5fm cells
# T1 sequence (P10997 34-70 limits assumed): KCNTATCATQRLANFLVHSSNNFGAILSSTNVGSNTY
# Procedure: (§1) Thioflavin T (ThT) Binding Assays
# (§2) At indicated time points, aliquots were gently mixed with a ThT solution (20 μM ThT in 0.05 M glycine/NaOH, pH 8.5); ThT binding was determined immediately by measuring fluorescence emission at 486 nm upon excitation at 450 nm using a 2030 Multilabel Reader VictorX3 (PerkinElmer Life Sciences). Effects of peptides added at specific pre- and post-nucleation time points of Aβ40 amyloidogenesis were studied by adding aliquots of Aβ40 solutions (16.5 μM; incubation conditions as above) aged for the indicated time points to the peptide (in dry form) as previously described and ThT binding was determined as above.
# (§3) 10 μl aliquots of solutions of the ThT binding and MTT assays were applied on carbon-coated grids at indicated time points, washed with distilled water and stained with aqueous 2% (w/v) uranyl acetate as described. Grids were examined using a JEOL JEM 100CX (at 100 kV) or a JEOL 1400 Nus electron microscope (at 120 kV).
# (§4) Both cell lines were cultured and plated in 96-well plates as described. […] Following incubation with the cells for ˜20 h (37° C., humidified atmosphere with 5% CO2), the MTT reduction assay was used to assess cell damage/metabolic activity as previously described.
# IAPP [2] = biological target: T1, IAPP; parameters: IAPP was synthesized by SPPS and the Fmoc-strategy on RINK resin, subjected to air oxidation and purified by RP-HPLC; made in house; host or cells: chemical synthesis (Fmoc SPPS on RINK resin, air oxidation); conditions: as previously found; cited from earlier work
# Aβ40 [3] = biological target: T2, Aβ40 (Homo sapiens, UniProt P05067); conditions: Aβ40 500 nM; value marked with literature reference [5]; read-out: IC50 (±SD) (nM) Aβ40 inhibition; cited from earlier work
# T2 construct: Aβ40 (TFA salt) was synthesized by Fmoc-based solid phase synthesis (SPPS); made in house; host or cells: chemical synthesis (Fmoc SPPS on Tentagel R PHB resin)
# T2 sequence (P05067 672-711): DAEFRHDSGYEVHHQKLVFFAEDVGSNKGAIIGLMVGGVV
# [4] = Peptide stability in human plasma (in vitro); format: in vitro ADME; conditions: human blood plasma, 200 μM peptide, 37° C., read-out: t1/2 in human plasma
# Procedure: Peptide Stability in Human Plasma (In Vitro)
# Peptides were dissolved in human blood plasma (obtained from voluntary healthy donors) at a concentration of 200 μM and incubated at 37° C. for various time intervals. Following quenching (1/1) with aqueous trichloroacetic acid (10%), solutions were incubated on ice for 10 min, subjected to centrifugation to precipitate plasma proteins (20200 g; 4 min), and the supernatants were mixed (1/2) with a solution consisting of 80% HPLC buffer B and 20% HPLC buffer A (see below). To quantify intact peptide at different time points, solutions containing the supernatants were analyzed by RP-HPLC (detection at 214 nm) by using a Nucleosil 100 C18 column (Grace) (length 33 mm length, ID 8 mm, 7 μm particle size) with a flow rate of 2.0 ml/min and eluting buffers A, 0.058% (v/v) TFA in water, and B, 0.05% (v/v) TFA in 90% (v/v) CH3CN in water. The elution gradient was 10-90% B in A over 8 min; this step was followed by a 90-10% B in A over 3 min step to establish starting conditions. HPLC fractions were collected, lyophilized, and analyzed by MALDI-TOF-MS using a Bruker Daltonik MALDI-TOF MS instrument.
# Aβ40 [5] = biological target: T2, Aβ40; test: Aβ40 fibrillogenesis by ThT binding, confirmed by TEM, with cell damage by MTT reduction; format: biochemical; conditions: Aβ40 16.5 μM, MTT in PC12 cells
# Procedure: as §1, §2, §3, §4
# Aβ40 [6] = biological target: T2, Aβ40; conditions: as previously found; cited from earlier work
compound,measurement,setting,value
CC[C@H](C)[C@@H](C(=O)N[C@@H](CC(C)C)C(=O)N[C@@H](CO)C(N)=O)N(C)C(=O)[C@H](C)NC(=O)CN(C)C(=O)[C@H](Cc1ccccc1)NC(=O)[C@H](CC(N)=O)NC(=O)[C@H](CCCNC(=N)N)NC(=O)[C@H](CCCNC(=N)N)NC(=O)[C@H](CCCNC(=N)N)NC(=O)[C@H](Cc1c[nH]cn1)NC(=O)[C@@H](NC(=O)[C@H](CC(C)C)NC(=O)[C@H](Cc1ccccc1)NC(=O)[C@H](CC(N)=O)NC(=O)[C@H](C)NC(=O)[C@H](CC(C)C)NC(=O)[C@H](CCCNC(=N)N)NC(=O)[C@H](CCC(N)=O)NC(=O)[C@@H](NC(=O)[C@H](C)N)[C@@H](C)O)C(C)C [R3-GI (1)] (H-ATQRLANFLVHRRRNF[Sar]A[NMeI]LS-NH2; N-terminus assumed),Effect on amyloid self-assembly and cell damage by IAPP,IAPP [1],not IAPP amyloidogenesis
same,app. Kd of interaction with fluorescently labeled IAPP,IAPP [2],mid-nanomolar
same,IC50,Aβ40 [3],116 nM
same,half-life at 200 μM,[4],~20 min
same,Effect on amyloid self-assembly and cell-damaging effects of Aβ40,Aβ40 [5],able to inhibit
same,app. Kd of interaction with fluorescently labeled Aβ40,Aβ40 [6],mid-nanomolar
